Measurements taken from patent publication US20230255884A1, “FINISHED FIBROUS SRUCTURES AND METHODS OF THEIR USE AND PREPARATION” (CLEXIO BIOSCIENCES LTD., priority 2019, published 2023).
Structures can show the parent of a compound that is named as a salt.

Key:
[1] = Example 16: % Add on of diclofenac compositions (10% Diclofenac sodium salt, 10% PEG 400, 10% propylene glycol, 2% Polysorbate 80), 60° C., 1 h, squeezed; type: physicochemical
Protocol: The samples were then removed from their vessels, squeezed, weighed and left to dry overnight at room temperature before their dry weight and percentage Add on were determined.

[2] = Example 16: diclofenac in the mother liquor by HPLC; type: physicochemical

## O=C(O)Cc1ccccc1Nc1c(Cl)cccc1Cl [Diclofenac, Diclofenac sodium salt]
[1]; NaOH 1 drop, pH 13.2
  % Add on: 32.0%
[1]; NaOH 1 drop, pH 14.0
  % Add on: 46.0%
[1]; ethanol 13.6% (w/w), no NaOH, pH 8.3
  % Add on: 44.1%
[1]; no ethanol, no NaOH, pH 8.5
  % Add on: 42.2%
[2]; ethanol based liquor
  diclofenac concentration in the mother liquor: 90.76 mg/g
[2]; water based liquor
  diclofenac concentration in the mother liquor: 93.68 mg/g
